{
  "source": "paper PMC7955127",
  "about": "“Preclinical small molecule WEHI-7326 overcomes drug resistance and elicits response in patient-derived xenograft models of human treatment-refractory tumors” (Cell Death & Disease, 2021)",
  "key": {"AH406 LUSC PDX": {"tested_on": "AH406 LUSC PDX", "experiment": "LUSC PDX model AH406", "format": "in vivo, NOD-SCID-IL2Rγc–/– mice", "conditions": "WEHI-7326 20 mg/kg i.v. biweekly, docetaxel 10 mg/kg i.p. once", "protocol": "LUSC PDXs were generated as described in[25]. PDXs at passage 4 were defrosted and washed with PBS before counting. 200,000 to 500,000 cells were then injected in a 50:50 PBS:Matrigel mix into the flanks of NOD-SCID-IL2Rγc–/– male mice. Tumors were measured twice weekly with calipers and treatment started when tumors were between 70–120 mm^3. Mice were assigned to treatment groups based on average tumor volume per group. Mice were culled when tumors reached a volume of 600 mm^3."}, "[1]": {"experiment": "Measured physicochemical and solubility data", "excerpt": "(§1) a Measured physicochemical and solubility data for WEHI-7326. […] Microsomal-predicted EH values are included."}, "[2]": {"experiment": "Metabolic stability in liver microsomes and cryopreserved hepatocytes", "format": "in vitro ADME", "conditions": "human, rat and mouse liver microsomes and cryopreserved hepatocytes", "excerpt": "as §1"}, "porcine tubulin": {"tested_on": "porcine tubulin", "experiment": "Tubulin in vitro polymerization assay (fluorescence-based, BK011P)", "format": "biochemical", "conditions": "purified tubulin", "protocol": "A commercial fluorescence-based tubulin polymerization assay (Cytoskeleton, Denver, CO; Cat. # BK011P) was used as per manufacturer’s instructions for detection of tubulin polymerization inhibitors. Briefly, porcine tubulin (3 mg/ml tubulin in 80 mM PIPES pH 7.0, 0.5 mM EGTA, 2 mM MgCl2, 1 mM GTP and 10% glycerol) was incubated at 37 °C with either vehicle control (DMSO), with Paclitaxel or antimitotic compound. Each condition was tested in duplicate. Polymerization was measured over time by excitation at 360 nm and emission at 420 nm in a temperature controlled 96-well plate fluorimeter (Envision 2105, Perkin-Elmer, Waltham, MS) equipped with filters for excitation at 340–360 nm and emission at 420–450 nm."}, "CEM": {"tested_on": "CEM", "experiment": "Cell growth inhibition assay, CEM", "format": "cell-based", "conditions": "Homo sapiens, CCRF-CEM, acute lymphoblastic leukemia, 72 h viability assay, Alamar Blue, mean of 3 ± SEM, read-out: IC50 (inhibition of cellular proliferation)", "protocol": "(§2) Cells were plated at a density of between 500 to 5000 cells per well for adherent cell lines depending on doubling time, and 15,000 cells per well for lymphoblastic leukemia cell lines, in a 96-well plate in 200 μl of growth media. Plates were incubated overnight at 37 °C before adding the inhibitors. Inhibitors were serially diluted from the stock solutions in complete medium and added to the cells. Incubation in the presence of inhibitors was continued for 72 days. Cell viability was assessed by the AlamarBlue (Invitrogen) or CellTiterBlue/Glo (Promega) method according to manufacturer’s instructions. The curve fits and IC50 values were generated in PRISM (GraphPad, San Diego, CA).\nParental human lymphoblastic leukemia cells (CEM) and their drug resistant derivatives (dEpoB30 and dEpoB300) were cultured in the presence of increasing amounts of WEHI-7326, paclitaxel or epothilone B. Cell survival was determined as described in Experimental Procedures. Shown are mean of 3 experiments +/- SEM. Dose response curves were fitted in PRISM using non-linear regression (4 parameter logistic) to calculate IC50 values."}, "U87MGΔ2–7": {"tested_on": "U87MGΔ2–7", "experiment": "Cell growth inhibition assay, U87MGΔ2–7", "format": "cell-based", "conditions": "Homo sapiens; U87MGΔ2–7, glioblastoma expressing activated EGFR; 72 h viability assay, CellTiterGlo; mean of 3 ± SEM; read-out: IC50 (inhibition of cellular proliferation)", "protocol": "as §2, with “Incubation in the presence of inhibitors was continued for 72 days.” left out"}, "[3]": {"tested_on": "LoVo (colon carcinoma) xenograft", "experiment": "LoVo tumor xenograft in nude mice", "format": "in vivo, Balb/c nude mice", "protocol": "(§3) LoVo (4 × 10^6), PC3 (3 × 10^6) or MDA-MB-231 LNA DRE (10^6) cells were collected by trypsination and injected with 50 μl 1:1 PBS:Matrigel (v/v) subcutaneously on the right flank of 18 female (LoVo), 40 male (PC3) or into 4th mammary fat pad of 40 female (MDA231) Balb/c nude mice. Tumor growth was monitored and average tumor size at commencement of dosing was 100 mm^3. Mice were randomized into 3 arms of each 5 (LoVo), 10 (PC3) or 12 (MDA23) mice respectively and treatment with vehicle (saline), WEHI-7326 (biweekly) or docetaxel (weekly) was administered via tail vein injection. Tumor volumes were measured at least twice weekly with calipers and the experiments were terminated when tumors in the control group started exceeding 1500 mm^3. For LoVo, both vehicle and 25 mg/kg WEHI-7326 groups were harvested 24 h, but 20 mg/kg WEHI-7326 group harvested 1 h post final dose. For PC3, docetaxel group was not harvested in an attempt to grow out resistant tumors."}, "LIM 2537": {"tested_on": "LIM 2537", "experiment": "Cell growth inhibition assay, LIM 2537", "format": "cell-based", "conditions": "Homo sapiens; LIM 2537, colon carcinoma; 72 h viability assay, CellTiterGlo; mean of 3 ± SEM; read-out: IC50 (inhibition of cellular proliferation)", "protocol": "as §2, with “Incubation in the presence of inhibitors was continued for 72 days.” left out"}, "[4]": {"tested_on": "PC3 (human prostate carcinoma) xenograft", "experiment": "PC3 tumor xenograft in nude mice", "format": "in vivo, Balb/c nude mice", "conditions": "male nude mice, day 17, biweekly i.v.", "protocol": "as §3"}},
  "data": [
    {"smiles": "COc1ccc(CNc2nc(NCc3ccc(CN)cc3)nc(NN3CC(=O)NC3=O)n2)cc1", "note": "[WEHI-7326]", "values": [
      {"measurement": "Median survival", "setting": "AH406 LUSC PDX", "value": 29, "unit": "days"},
      {"measurement": "Lipophilicity", "setting": "[1]", "value": "very low"},
      {"measurement": "Solubility in common dosing vehicles", "setting": "[1]; 5% [w/v] glucose, 0.9% [w/v] saline and isotonic acetate buffer pH 5", "value": "soluble"},
      {"measurement": "Stability in dosing vehicles", "setting": "[1]; storage in common dosing vehicles", "value": "negligible degradation"},
      {"measurement": "Rate of metabolism", "setting": "[2]", "value": "low rates of metabolism"},
      {"measurement": "Effect on in vitro tubulin polymerization", "setting": "porcine tubulin; 50 μM", "value": "markedly slowed tubulin polymerization"},
      {"measurement": "Effect on in vitro tubulin polymerization rates", "setting": "porcine tubulin; concentrations up to 15 μM, vs vehicle", "value": "did not affect"},
      {"measurement": "IC50", "setting": "CEM", "value": "3.99 ± 0.04", "unit": "nM"},
      {"measurement": "IC50", "setting": "U87MGΔ2–7", "value": "6.1 ± 1.6", "unit": "nM"},
      {"measurement": "Body weight loss", "setting": "[3]; LoVo xenograft mice, 25 mg/kg, 9 doses in total", "value": "~ 6%"},
      {"measurement": "Tumor growth inhibition", "setting": "[3]; LoVo xenograft, 25 mg/kg biweekly i.v.", "value": 60, "unit": "%"},
      {"measurement": "IC50", "setting": "LIM 2537", "value": "58.9 ± 7.5", "unit": "nM"},
      {"measurement": "Tumor growth inhibition (TGI)", "setting": "[4]", "value": "~ 75%"}
    ]}
  ]
}
